From patent US11485751B2, “Apramycin derivatives” (WAYNE STATE UNIVERSITY, priority 2017, dated 2022)
Converted amounts (≈) assume the structure as drawn.

Legend:
[1] = system: clinical isolates carrying APH(3′)-II; experiment: MIC broth microdilution, APH(3′)-II; assay type: cell-based; details: clinical isolates, IMM Univ. Zurich; APH(3′)-II; read-out: MIC APH(3′)-II
Text: (§1) Minimal inhibitory concentrations (MIC) have been determined by broth microdilution assays (CLSI. Methods for Dilution Antimicrobial Susceptibility Tests for Bacteria That Grow Aerobically; Approved Standard—Tenth Edition. CLSI document M07-A10. Wayne, Pa.: Clinical and Laboratory Standards Institute; 2015.).
(§2) Minimal inhibitory concentrations (MICs, […]) against clinical isolates from Institute of Medical Microbiology, Univ. Zurich, and the IC50 values for bacterial, human mitochondrial and human cytosolic ribosomes are indicated.

[2] = system: human cytosolic ribosomes; experiment: in-vitro translation assay, human cytosolic ribosomes; assay type: biochemical
In short: (§3)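 Reported values are IC50s for inhibition of in-vitro translation. For the mitochondrial target, human chimeric ribosomes were used. For the cytosolic target, rabbit reticulocyte ribosomes were used.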

[3] = system: AG225, Acinetobacter baumannii pittii; experiment: MIC reference strain AG225; assay type: cell-based; details: Acinetobacter baumannii, reference strain; read-out: MIC AG225 A. baumannii
In short: (§4)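 The method determines minimal inhibitory concentrations using the standard CLSI microdilution procedure in liquid medium.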

[4] = system: AG003 E. coli AAC(3)-II; experiment: Antibacterial activity, clinical isolate AG003; assay type: cell-based
In short: (§5)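 Susceptibility was tested per CLSI aerobic dilution protocol using microbroth format, with the MIC taken as the end point.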

[5] = system: bacterial ribosomes; experiment: in-vitro translation assay, bacterial ribosomes; assay type: biochemical
In short: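 Cell-free translation; IC50 read-out. Mito = human chimeric ribosomes; cytosolic = rabbit reticulocyte ribosomes; bacterial ribosomes run in the same assay format.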

[6] = system: ATCC19977 M. abcessus; experiment: MIC reference strain ATCC19977; assay type: cell-based; details: read-out: MIC ATCC19977 M. abcessus
In short: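 Compounds are serially diluted in liquid medium in microplates, bacteria are added, and the lowest concentration preventing growth is recorded as the MIC (CLSI procedure).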

[7] = system: AG290, Enterobacter cloacae; experiment: MIC reference strain AG290; assay type: cell-based; details: Enterobacter cloacae; reference strain; read-out: MIC AG290 E. cloacae
In short: as §4

[8] = system: AG039 MRSA AAC(6′)-I ANT(4′)-I; experiment: Antibacterial activity, clinical isolate AG039; assay type: cell-based
In short: as §5

[9] = system: Engineered E. coli AG103 armA; experiment: Activity against G1405-methylated 16S-rRNA, E. coli AG103 armA; assay type: cell-based
In short: (§6)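 Strains are tested by broth microdilution under the CLSI M07-A10 procedure. The lowest inhibitory concentration is recorded as the MIC.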

[10] = system: AG212, Escherichia coli ATCC25922; experiment: MIC reference strain AG212; assay type: cell-based; details: Escherichia coli; reference strain ATCC25922; read-out: MIC AG212 E. coli
In short: as §4

[11] = system: AG163 E. coli APH(3′)-I; experiment: Antibacterial activity, clinical isolate AG163; assay type: cell-based
Text: as §1
Table 4 and 5 show the antibacterial activity of the compounds of the invention against bacterial reference strains (table 4) and against representative clinical isolates (table 5).

[12] = system: Engineered E. coli pH427 rmtF; experiment: Activity against G1405-methylated 16S-rRNA, E. coli pH427 rmtF; assay type: cell-based
In short: as §6

[13] = system: Engineered E. coli pH426 rmtC; experiment: Activity against G1405-methylated 16S-rRNA, E. coli pH426 rmtC; assay type: cell-based
In short: as §6

[14] = system: AG031 P. aer. APH(3′)-II; experiment: Antibacterial activity, clinical isolate AG031; assay type: cell-based; set-up: unit not given here
In short: as §5

[15] = system: AG001 E. coli WT; experiment: Antibacterial activity, clinical isolate AG001; assay type: cell-based; set-up: unit not given here
In short: as §5

[16] = system: clinical isolates carrying APH(3′)-III; experiment: MIC broth microdilution, APH(3′)-III; assay type: cell-based; details: IMM Univ. Zurich
Text: as §1, §2

[17] = system: AG033 P. aer. APH(3′)-II AAC(6′)-I; experiment: Antibacterial activity, clinical isolate AG033; assay type: cell-based; set-up: unit not given here
In short: as §5

[18] = system: Engineered E. coli pH430 WT; experiment: Activity, engineered E. coli pH430 WT; assay type: cell-based; details: wild type
In short: as §6

[19] = system: AG220, Pseudomonas aeruginosa ATCC27853; experiment: MIC reference strain AG220; assay type: cell-based; details: Pseudomonas aeruginosa, ATCC27853, reference strain ATCC27853; read-out: MIC AG220 P. aeruginosa
In short: as §4

[20] = system: Engineered E. coli pH424 armA; experiment: Activity against G1405-methylated 16S-rRNA, E. coli pH424 armA; assay type: cell-based
In short: as §6

[21] = system: clinical isolates carrying AAC(3)-IV; experiment: MIC broth microdilution, AAC(3)-IV; assay type: cell-based; details: clinical isolates, IMM Univ. Zurich; AAC(3)-IV; read-out: MIC AAC(3)-IV
In short: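 Clinical isolates supplied by the Zurich Institute of Medical Microbiology were tested for MIC (μg/ml) using CLSI M07-A10 broth microdilution.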

[22] = system: clinical isolates carrying APH(3′)-I; experiment: MIC broth microdilution, APH(3′)-I; assay type: cell-based; details: IMM Univ. Zurich
Text: as §1, §2

[23] = system: SZ380, Mycobacterium smegmatis; experiment: MIC reference strain SZ380; assay type: cell-based; details: Mycolicibacterium smegmatis, reference strain; read-out: MIC SZ380 M. smegmatis
In short: as §4

[24] = system: AG042 MRSA AAC(6′)-I ANT(4′)-I APH(2′); experiment: Antibacterial activity, clinical isolate AG042; assay type: cell-based; set-up: unit not given here
In short: as §5

[25] = system: clinical isolates carrying APH(3′)-VI; experiment: MIC broth microdilution, APH(3′)-VI; assay type: cell-based; details: IMM Univ. Zurich
Text: as §1, §2

[26] = system: AG055 E. coli WT; experiment: Antibacterial activity, clinical isolate AG055; assay type: cell-based; set-up: unit not given here
In short: as §5

[27] = system: AG173 E. coli AAC(3)-IV; experiment: Antibacterial activity, clinical isolate AG173; assay type: cell-based
In short: as §5

[28] = system: AG032 P. aer. APH(3′)-II; experiment: Antibacterial activity, clinical isolate AG032; assay type: cell-based; set-up: unit not given here
In short: as §5

[29] = system: Engineered E. coli pH425 rmtB; experiment: Activity against G1405-methylated 16S-rRNA, E. coli pH425 rmtB; assay type: cell-based
In short: as §6

[30] = system: human mitochondrial ribosomes; experiment: in-vitro translation assay, human mitochondrial (human chimeric) ribosomes; assay type: biochemical
In short: as §3

[31] = system: AG038 MRSA; experiment: Antibacterial activity, clinical isolate AG038; assay type: cell-based; set-up: unit not given here
In short: as §5

[32] = system: AG215, Klebsiella pneumonia; experiment: MIC reference strain AG215; assay type: cell-based; details: Klebsiella pneumoniae, reference strain; read-out: MIC AG215 K. pneumonia
In short: as §4

[33] = system: APH(3′, 5″) resistance determinant; experiment: Susceptibility to the APH(3′, 5″) resistance determinant; assay type: cell-based
Text: as §1
The introduction of a formamido group results in compounds that display increased selectivity for the bacterial ribosome over the mitochondrial (wild type and A1555G mutant) ribosomes, predictive of reduced ototoxicity.

Structure (SMILES) | MIC [1] | IC50 [2] | MIC [3] | Antibacterial activity AG003 E. coli AAC(3)-II [4] | IC50 [5] | MIC [6] | MIC [7] | Antibacterial activity AG039 MRSA AAC(6′)-I ANT(4′)-I [8] | Activity E. coli AG103 armA [9] | MIC [10] | Antibacterial activity AG163 E. coli APH(3′)-I [11] | Activity E. coli pH427 rmtF [12] | Activity E. coli pH426 rmtC [13] | Antibacterial activity AG031 P. aer. APH(3′)-II [14] | Antibacterial activity AG001 E. coli WT [15] | MIC [16] | Antibacterial activity AG033 P. aer. APH(3′)-II AAC(6′)-I [17] | Activity E. coli pH430 WT [18] | MIC [19] | Activity E. coli pH424 armA [20] | also measured
CNC1C(OC2OC(CO)C(N)C(O)C2O)OC2CC(N)C(OC3C(N)CC(N)C(O)C3OC3OC(CO)C(OCCO)C3O)OC2C1O [DC178, 5-O-β-[3′″-O-(2-Hydroxyethyl)-D-ribofuranosyl] apramycin] | 8 µg/mL (≈ 11.2 µM) | > 500 µM | 16 µg/mL | 16 | 0.22 µM | 32 µg/mL (≈ 44.7 µM) | 8 µg/mL | 32 | 2 | 8 µg/mL | 8 | 8 | 8 | >32 | 32 | 2 µg/mL (≈ 2.79 µM) | >32 | 8 | > 64 µg/mL | 2 | MIC [21]: > 32 µg/mL; MIC [22]: > 64 µg/mL; MIC [23]: 2 µg/mL; Antibacterial activity AG042 MRSA AAC(6′)-I ANT(4′)-I APH(2′) [24]: 32; MIC [25]: 16 µg/mL (≈ 22.4 µM); Antibacterial activity AG055 E. coli WT [26]: 16; Antibacterial activity AG173 E. coli AAC(3)-IV [27]: 32-64; Antibacterial activity AG032 P. aer. APH(3′)-II [28]: >32; Activity E. coli pH425 rmtB [29]: 8; IC50 [30]: 647 µM; Antibacterial activity AG038 MRSA [31]: 16-32; MIC [32]: 4 µg/mL
CNC1C(OC2OC(CO)C(N)C(O)C2O)OC2CC(N)C(OC3C(N)CC(N)C(O)C3OC3OC(CNC=O)C(OCCN)C3O)OC2C1O [DC186, 5-β-[3-O-(2-Aminoethyl)-5-deoxy-5-formamido-D-ribofuranosyl] apramycin] | 2 µg/mL (≈ 2.7 µM) | 105 µM | 8 µg/mL | 2 | 0.06 µM | 8 µg/mL (≈ 10.8 µM) | 1 to 2 µg/mL | 4-8 | 0.5-1 | 2 to 4 µg/mL | 2 | 2 | 4 | 16 | 2 | 0.25 µg/mL (≈ 0.337 µM) | 64 | 2 | 16 to 32 µg/mL | 2 | susceptibility to the APH(3′, 5″) resistance determinant [33]: circumvent this problem; MIC [21]: > 32 µg/mL; MIC [22]: 2 µg/mL (≈ 2.7 µM); Antibacterial activity AG042 MRSA AAC(6′)-I ANT(4′)-I APH(2′) [24]: 4-8; MIC [25]: 2 µg/mL (≈ 2.7 µM); Antibacterial activity AG055 E. coli WT [26]: 4; Antibacterial activity AG173 E. coli AAC(3)-IV [27]: 32; Antibacterial activity AG032 P. aer. APH(3′)-II [28]: 32; Activity E. coli pH425 rmtB [29]: 2; IC50 [30]: 69 µM; Antibacterial activity AG038 MRSA [31]: 4; MIC [32]: 1 µg/mL
